Measured values: ChEMBL document CHEMBL3286113, “New potent antibacterial oxazolidinone (MRX-I) with an improved class safety profile” (J Med Chem, 2014)
Converted amounts (≈) assume the structure as drawn.

Test system: Staphylococcus aureus
Assay: Antibacterial activity against Staphylococcus aureus
Assay type: functional

MIC: 0.5 µg/mL (≈ 1.81 µM)
Compound: CC(=O)NC[C@H]1CN(c2ccc(C(C)=O)cc2)C(=O)O1 [DUP-721]
